Data as given in patent US5385885A, “Inhibition of smooth muscle cell proliferation by antistasin and tick anticoagulant peptide” (priority 1991, dated 1995).

Columns and labels:
[1] = test system: human venous endothelial cells; assay: Release of mitogens from endothelial cells stimulated with factor Xa; conditioned media tested for mitogenic activity on 3T3 cells; format: cell-based; settings: 1 unit = activity induced by 2 ng/ml PDGF, FXa 1 nM, ATS 5 nM, PDGF 2 ng/ml, 16 h
Method: (§1) Confluent primary cultures or subcultures (passages 1 and 2) of human venous endothelial cells (EC) were cultured in serum-free Dulbecco's Minimal Essential Medium (DMEM)+0.1% bovine serum albumin (BSA) in the presence of human or bovine factor Xa(1 nM) (Sigma Chemical Co., St. Louis, Mo.), antistasin (ATS) (0.5-5.0 nM), or both. Control cultures were untreated or received 2 ng/ml platelet-derived growth factor (PDGF) (Sigma Chemical Co., St. Louis, Mo.). After 16 hours incubation at 37° C., the conditioned media (CM) from the test and control cell cultures were collected and tested for mitogenic activity (MIT) using confluent NIH 3T3 cells (CCL 163, American Type Culture Collection, Rockville, Md.).
(§2) Primary cultures of EC derived from umbilical cord veins were prepared and grown according to a protocol provided to by Dr. Gwendolyn Stewart (Temple University Thrombosis Center, Phila., Pa.). After washing the lumen of the vein twice with DMEM, EC were dissociated with a solution containing 0.05% trypsin and 0.1% collagenase. Thirty minutes later, the venous content and the perfused DMEM (35 ml) was collected into a fifty ml centrifuge tube containing 3.5 ml of bovine serum and the mixture spun at 900 rpm for 10 minutes. The supernate was discarded and the cell pellet resuspended in 3.0 ml DMEM containing 20% fetal bovine serum (FBS) (heat inactivated at 56° C. for 30 minutes), 90 μg heparin per ml, 5 μg fibronectin per ml, and 60 μg endothelial growth factor per ml (cDMEM), and seeded into 35 mm tissue culture dishes. After 24 hours of incubation at 37 °C, 5% CO2, the culture was washed 3-4 times with DMEM and incubated 2-4 days until the cells were confluent. The monolayers were washed with phosphate buffered saline (PBS) and cultured in DMEM with 0.1% BSA in the presence and absence of 1 nM factor Xa, 5 nM antistasin, or a mixture of both. As positive and negative controls, separated monolayers were incubated with the medium plus 2 ng/ml PDGF or with the medium alone. After 16 hours of incubation at 37° C., conditioned media (CM) were collected, centrifuged at 4000×g for 10 minutes, and the supernate was collected and stored at 4° C. until use. The mitogenic activity of the CM was tested by measuring the incorporation of [^3 H] thymidine into cultures of Balb 3T3 cells. For this purpose, wells were seeded with 2×10^4 3T3 cells suspended in 1 ml DMEM with 10% FBS. Once confluent (5-7 days of culture), CM were added and cells incubated for 18 hours at 37° C. after which cultures were washed with warm DMEM, tritiated thymidine added (1 μCi/ml) and cells incubated for 4 hours at 37° C. […] The lysate was transferred to vials with scintillation fluid and radioactivity monitored in a beta radiation counter. […]

[2] = test system: human venous endothelial cells; assay: Release of mitogens from endothelial cells stimulated with PDGF; conditioned media tested for mitogenic activity on 3T3 cells; format: cell-based; settings: PDGF 2 ng/ml, ATS 5 nM, 16 h
Method: as §1, with “cells” for “cells (EC)”, “platelet-derived growth” for “human or bovine”, “(PDGF) (2 ng/ml),” for “Xa(1 nM) (Sigma Chemical Co., St. Louis, Mo.),”, “(5.0-10” for “(0.5-5.0”, “PDGF.” for “platelet-derived growth factor (PDGF) (Sigma Chemical Co., St. Louis, Mo.).”, “C.,” for “C., the”
as §2, with “2 ng/ml PDGF,” for “1 nM factor Xa,”, “alone.” for “alone. After 16 hours of incubation at 37° C., conditioned media (CM) were collected, centrifuged at 4000×g for 10 minutes, and the supernate was collected and stored at 4° C. until use. The mitogenic activity of the CM was tested by measuring the incorporation of [^3 H] thymidine into cultures of Balb 3T3 cells. For this purpose, wells were seeded with 2×10^4 3T3 cells suspended in 1 ml DMEM with 10% FBS. Once confluent (5-7 days of culture), CM were added and cells incubated for 18 hours at 37° C. after which cultures were washed with warm DMEM, tritiated thymidine added (1 μCi/ml) and cells incubated for 4 hours at 37° C.”

Measured: Mitogenic units of EC conditioned media

PDGF [reference compound]
1.00 mitogenic units: [1]; EXP 1 | [1]; EXP 2 | [1]; EXP 3 | [1]; EXP 4 | [2]; EXP 1 | [2]; EXP 2 | [2]; EXP 3
